{
  "source": "patent US7754896B2",
  "about": "“Indol-alanine derivatives as selective S1P4-agonists” (Novartis AG, priority 2004, dated 2010)",
  "assay_type_in_all_cases": "cell-based",
  "key": {"[1]": {"target": "T1, S1P3 (Homo sapiens, UniProt Q99500)", "T1 construct": "expressed in transfected cells", "T1 sequence (Q99500 whole entry)": "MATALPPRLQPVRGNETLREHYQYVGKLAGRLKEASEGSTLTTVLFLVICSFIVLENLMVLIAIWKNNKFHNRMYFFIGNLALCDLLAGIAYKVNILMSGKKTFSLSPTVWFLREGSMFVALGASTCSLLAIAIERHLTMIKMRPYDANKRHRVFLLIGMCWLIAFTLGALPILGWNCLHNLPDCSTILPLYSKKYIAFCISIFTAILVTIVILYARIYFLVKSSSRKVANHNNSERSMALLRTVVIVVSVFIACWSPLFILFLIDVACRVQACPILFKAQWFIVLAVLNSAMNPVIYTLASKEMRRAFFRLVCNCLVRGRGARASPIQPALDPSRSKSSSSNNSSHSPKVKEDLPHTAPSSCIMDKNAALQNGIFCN", "experiment": "Calcium mobilization assay, CHO cells expressing S1P3", "from_the_text": "(§1) Human S1P1 (GenBank™ accession number M31210) and S1P3 (GenBank™ accession number X83864) cDNA containing the myc sequence in front to the human S1P1 and S1P3 sequences are inserted in the pcDNA 3.1 vector. The vectors are sequenced to completion to confirm the correctness of the construct. The human S1P2 (GI: 4090955, TREMBL: 0195136) is cloned by a PCR based method. Lung cDNA (marathon cDNA) is obtained (BD Biosciences Chontech, Palo Alto, Calif. 94303, USA). […] The amplified product of around 1100 bp is analyzed by standard agarose gel-electrophoresis. […]\n(§2) CHO cells are plated in black Costar plate (96 or 384 well, 50,000 cells or 12,500 cells, respectively) in a MEM with FCS and cultured for 20-24 h at 37° C. in a CO2 incubator. […] After measuring the baseline for 40 sec, the agonist in HBSS is added and the fluorescence is measured at intervals of 2 sec for 3 to 5 min. […]\n(§3) The compounds mentioned in this application are tested for specificity, e.g. the activity they have in the parental cell line prior transformation with the S1P4 cDNA and for selectivity on CHO cells lines transformed with the S1P1, S1P2, S1P3, and S1P5. […] For example, S1P4 specific and selective compounds may have an EC50 (apparent EC50) measured at S1P4 that is 10×, preferably 100× lower that that measured in wild type CHO cells or In cell expressing any of the other four S1P receptors."}, "[2]": {"target": "T2, S1P5 (Homo sapiens, UniProt Q9H228)", "T2 construct": "expressed in transfected cells", "T2 sequence (Q9H228 whole entry)": "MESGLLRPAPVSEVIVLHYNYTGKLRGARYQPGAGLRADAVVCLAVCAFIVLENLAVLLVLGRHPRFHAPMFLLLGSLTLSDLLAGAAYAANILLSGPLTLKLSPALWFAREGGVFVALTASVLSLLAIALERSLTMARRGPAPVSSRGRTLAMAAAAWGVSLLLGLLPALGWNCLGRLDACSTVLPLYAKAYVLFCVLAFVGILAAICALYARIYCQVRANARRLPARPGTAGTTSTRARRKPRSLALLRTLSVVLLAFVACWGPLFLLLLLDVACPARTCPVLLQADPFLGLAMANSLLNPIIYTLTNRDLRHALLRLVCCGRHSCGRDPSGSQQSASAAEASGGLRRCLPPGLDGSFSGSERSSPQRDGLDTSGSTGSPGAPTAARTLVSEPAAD", "experiment": "Calcium mobilization assay, CHO cells expressing S1P5", "from_the_text": "The human S1P5 (GI: 30171332 or GenBank™ accession number AY262689, TREMBL: Q9H228) is cloned by a PCR based method. Lung and spleen cDNA (marathon cDNA) is obtained from BD Biosciences Chlontech (BD Biosciences Chlontech, Palo Alto, Calif. 94303, USA); genomic DNA is isolated from HeLa cells using standard procedures. Following oligonucleotides are used for the PCR reaction: forward primer CACCATGGAGTCGGGGCTGCTGCG (−4 to 20, GenBank™ accession number AY262689) and reverse primer 5′-TCAGTCTGCAGCCGGTTCTGATACCAGAGTC (1197 to 1131, AY262689), the initiation of the translation (ATG) and the stop codon are underlined. […] The amplified product of around 1100 bp is analyzed by standard agarose gel-electrophoresis. […]\nas §2"}, "[3]": {"target": "T3, S1P2 (Homo sapiens, UniProt O95136)", "T3 construct": "expressed in transfected cells", "T3 sequence (O95136 whole entry)": "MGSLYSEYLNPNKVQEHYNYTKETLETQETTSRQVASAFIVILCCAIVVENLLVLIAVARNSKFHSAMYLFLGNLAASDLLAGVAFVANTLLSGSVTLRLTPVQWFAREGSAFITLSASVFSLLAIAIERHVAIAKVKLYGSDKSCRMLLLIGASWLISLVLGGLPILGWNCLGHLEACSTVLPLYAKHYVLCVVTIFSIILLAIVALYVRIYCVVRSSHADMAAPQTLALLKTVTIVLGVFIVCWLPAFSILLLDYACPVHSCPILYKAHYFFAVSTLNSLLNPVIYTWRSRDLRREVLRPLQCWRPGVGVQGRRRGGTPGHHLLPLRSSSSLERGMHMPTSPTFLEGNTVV", "experiment": "Calcium mobilization assay, CHO cells expressing S1P2", "from_the_text": "as §1, §2, §3"}},
  "data": [
    {"smiles": "NC(CNC(=O)c1cc2c(-c3ccccc3Cc3ccccc3)cccc2[nH]1)C(=O)O", "note": "(stereo not drawn) [Example 2]", "values": [
      {"measurement": "EC50", "setting": "[1]", "result": "> 6", "unit": "µM"},
      {"measurement": "EC50", "setting": "[2]", "result": 2.4, "unit": "µM"},
      {"measurement": "EC50", "setting": "[3]", "result": "> 6", "unit": "µM"}
    ]}
  ]
}
